Measured values taken from patent publication US11026426B2, “Oxadiazole and phenol derivatives as antibacterial and/or herbicidal agents” (NORTHERN ILLINOIS RESEARCH FOUNDATION, priority 2017, dated 2021).
Like-named read-outs stand apart in the source and are kept apart here.

How the values were obtained:
LeIspE = LeIspE (Solanum lycopersicum, UniProt P93841); test: University of Hamburg photometric enzymatic inhibition assay LeIspE; type: biochemical, Lycopersicon esculentum
Description: (§1) Compounds were subjected to a photometric enzymatic assay to test for inhibition of the plant enzymes Arabidopsis thaliana IspD and IspF, and IspE from Lycopersicon esculentum.
The IspE assay conditions were very similar to the IspD assay in which the assay mixture was composed of 100 mM Tris hydrochloride at pH 8.0 with 10 mM MgCl2, 1 mM dithiothreitol, 2.5 mM potassium phosphoenol pyruvate, 2 mM ATP, 1 mM of 4-Diphosphocytidyl-2-C-methylerythritol, 460 μM NADH, 1.1% (v/v) DMSO, 2.4 mU IspE, 1 U lactate dehydrogenase, 1 U pyruvate kinase in 180 μL of solution. Solutions were incubated at 27° C. and monitored photometrically.

[1] = molecular target: T1, Mycobacterium tuberculosis IspD (MtIspD) (Mycobacterium tuberculosis, UniProt P9WKG9); test: Thermal shift assay against MtIspD; type: binding
T1 sequence (P9WKG9 1-231): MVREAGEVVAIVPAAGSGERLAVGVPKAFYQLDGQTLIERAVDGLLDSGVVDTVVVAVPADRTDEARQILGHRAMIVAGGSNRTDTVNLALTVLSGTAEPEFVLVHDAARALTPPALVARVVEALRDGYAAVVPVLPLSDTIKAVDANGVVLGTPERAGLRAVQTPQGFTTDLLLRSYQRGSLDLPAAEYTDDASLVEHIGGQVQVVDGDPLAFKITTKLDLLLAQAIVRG

AtIspF = AtIspF (Arabidopsis thaliana, UniProt Q9CAK8); test: University of Hamburg photometric enzymatic inhibition assay AtIspF; type: biochemical
Sequence of AtIspF (Q9CAK8 53-231): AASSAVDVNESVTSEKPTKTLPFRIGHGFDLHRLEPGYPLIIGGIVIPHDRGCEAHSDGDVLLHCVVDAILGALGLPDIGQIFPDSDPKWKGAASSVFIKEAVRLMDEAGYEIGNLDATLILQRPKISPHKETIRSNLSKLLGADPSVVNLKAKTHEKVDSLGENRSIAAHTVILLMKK
Description: as §1
The IspF assay mixture conditions were as follows: 100 mM Tris hydrochloride at pH 8.0 with 10 mM MgCl2, 1 mM dithiothreitol, 2.5 mM potassium phosphoenol pyruvate, 2 mM ATP, 1 mM of 4-diphosphocytidyl-2C methylerythritol 2-phosphate, 460 μM NADH, 1.1% (v/v) DMSO, 0.5 U CMP kinase, 2.4 mU IspF, 1 U lactate dehydrogenase, 1 U pyruvate kinase in 180 μL of solution. Solutions were incubated at 27° C. and monitored photometrically.

Klebsiella pneumonia = test: Antibacterial preliminary screening KP; type: cell-based; settings: score 0-3; also: key: 0 represents no inhibition; 3 is comparable to commercial antibiotic control
Mycobacterium smegmatis = test: Antibacterial preliminary screening MS; type: cell-based; settings: score 0-3; also: key: 0 represents no inhibition; 3 is comparable to commercial antibiotic control
Bacillus cereus = test: Antibacterial preliminary screening BC; type: cell-based; settings: score 0-3; also: key: 0 represents no inhibition; 3 is comparable to commercial antibiotic control
[2] = test system: Corynebacterium pseudodiphtheriae; test: Antibacterial preliminary screening CP; type: cell-based; settings: score 0-3;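 also: 0 is no inhibition and 3 matches the commercial antibiotic control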
[3] = molecular target: Lycopersicon esculentum IspE (LeIspE) (Solanum lycopersicum, UniProt P93841); test: Thermal shift assay against LeIspE; type: binding
Sequence of Lycopersicon esculentum IspE (LeIspE) (P93841 89-401): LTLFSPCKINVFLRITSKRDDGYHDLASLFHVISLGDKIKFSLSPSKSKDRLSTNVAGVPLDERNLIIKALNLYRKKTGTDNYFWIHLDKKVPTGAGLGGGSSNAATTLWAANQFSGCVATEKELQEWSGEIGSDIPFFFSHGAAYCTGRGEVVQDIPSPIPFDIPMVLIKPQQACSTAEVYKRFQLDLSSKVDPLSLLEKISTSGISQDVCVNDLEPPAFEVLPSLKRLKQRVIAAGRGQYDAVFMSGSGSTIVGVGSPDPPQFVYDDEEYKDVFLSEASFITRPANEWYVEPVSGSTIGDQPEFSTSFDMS

lettuce seeds = test: Lettuce leaf assay; type: in vivo; set-up: key: 0 (no effect); 5(complete inhibition or bleaching); settings: ranking 0-5
From the text: The lettuce leaf assay is a qualitative assay used to determine the relative effectiveness of the test compounds at inhibition of germination of seeds and root development as well as causing bleaching of leaves. Isoprenoid synthesis is vital in plants as isoprene-product gibberellins are a class of growth hormones in plants responsible for stimulating cell elongation and division. In addition, some carotenoids are involved in photosynthesis as components of the electron transport chain. MEP pathway inhibitors have the potential to prevent synthesis of these necessary cellular components and growth hormones resulting in inhibition of germination and root development as well as causing chlorosis, or bleaching in the leaves. The lettuce leaf assay, explores the effects of compounds as potential MEP pathway inhibitors by evaluating the effect on bleaching, root development, and germination of lettuce seeds, which all rely on isoprenoid biosynthesis. […] The assay is a qualitative assay and the effects are given rankings from 0 (no effect) to 5 (complete inhibition or bleaching). In this assay, compounds are dissolved in a volatile organic solvent and applied to filter paper in a petri dish. The solvent is allowed to evaporate and lettuce seeds are applied followed by the addition of 5 mL of water to obtain the necessary concentrations. Seeds are allowed to grow and they are observed on day 3 and day 4 for evaluation.

Corynebacterium xerosis = test: Antibacterial preliminary screening CX; type: cell-based; settings: score 0-3; also: key: 0 represents no inhibition; 3 is comparable to commercial antibiotic control
[4] = test system: Burkholderia thailandensis; type: cell-based; settings: preliminary screening, score 0-3
Pseudomonas aeruginosa = test: Antibacterial preliminary screening PA; type: cell-based; settings: score 0-3; also: key: 0 represents no inhibition; 3 is comparable to commercial antibiotic control
AtIspD = AtIspD (Arabidopsis thaliana, UniProt P69834); test: University of Hamburg photometric enzymatic inhibition assay AtIspD; type: biochemical
Sequence of AtIspD (P69834 62-302): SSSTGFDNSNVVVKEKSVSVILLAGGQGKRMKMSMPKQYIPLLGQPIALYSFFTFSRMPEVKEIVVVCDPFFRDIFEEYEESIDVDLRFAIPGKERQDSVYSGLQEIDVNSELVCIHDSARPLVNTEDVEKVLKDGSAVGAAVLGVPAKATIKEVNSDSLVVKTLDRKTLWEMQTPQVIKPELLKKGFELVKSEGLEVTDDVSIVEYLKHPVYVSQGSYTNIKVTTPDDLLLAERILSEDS
Description: as §1
The procedure for AtIspD enzymatic inhibition assay, was performed by making an assay mixture of 100 mM Tris hydrochloride at pH 8.0 with 10 mM MgCl2, 1 mM dithiothreitol, 2.5 mM potassium phosphoenol pyruvate, 2.1 mM CTP, 2 mM ATP, 1 mM of (2R,3S)-2,3-dihydroxy-4-oxopentyl phosphate, 460 μM NADH, 1.1% (v/v) DMSO, 0.4 U IspE, 1 U lactate dehydrogenase, 1 U pyruvate kinase and 2.4 mU IspD in 180 μL of solution. Solutions were incubated at 27° C. and monitored photometrically. By preparing the assay mixture with a large excess of IspE compared to IspD, any inhibition of IspE by the test inhibitor would be insignificant compared to IspD and therefore the rate of the reaction is determined by IspD activity.

Escherichia coli = test: Antibacterial preliminary screening EC; type: cell-based; settings: score 0-3; also: key: 0 represents no inhibition; 3 is comparable to commercial antibiotic control
Micrococcus luteus = test: Antibacterial preliminary screening ML; type: cell-based; settings: score 0-3; also: key: 0 represents no inhibition; 3 is comparable to commercial antibiotic control

Sequence of LeIspE (P93841 89-401): as the sequence (P93841 89-401) above

Row | Structure (SMILES) | MtIspD melting point change [1] [°C] | MtIspD melting temp [1] [°C] | KP score (Klebsiella pneumonia) | MS score (Mycobacterium smegmatis) | BC score (Bacillus cereus) | melting point [°C] | CP score [2] | LeIspE melting point change [3] [°C] | LeIspE melting temp [3] [°C] | Bleaching (lettuce seeds; 0.15 mM) | Germination (lettuce seeds; 0.15 mM) | Root Dev. (lettuce seeds; 0.15 mM) | CX score (Corynebacterium xerosis) | BT score [4] | PA score (Pseudomonas aeruginosa) | EC score (Escherichia coli) | ML score (Micrococcus luteus) | IC50 (LeIspE; read-out: LeIspE IC50) [µM] | IC50 (AtIspF; read-out: AtIspF IC50) [µM] | IC50 (AtIspD; read-out: AtIspD IC50) [µM] | further results
1 | O=[N+]([O-])c1cc(-c2nnc(-c3nc4ccccc4s3)o2)cc([N+](=O)[O-])c1 [HGN-334, 2-(benzo[d]thiazol-2-yl)-5-(3,5-dinitrophenyl)-1,3,4-oxadiazole] | 0.0 | 48.0 | 0 | 0 | 0 | 180 to 185 | 0 | −1.50 | 48.00 | 0 | 0 | 0 | 0 | 0 | 0 | 0 | 0 |  |  |  | IC50 (LeIspE): > 500 µM; IC50 (AtIspF): > 500 µM; Bleaching (lettuce seeds; 0.3 mM): 0; Germination (lettuce seeds; 0.3 mM): 0; Root Dev. (lettuce seeds; 0.3 mM): 0; IC50 (AtIspD): > 500 µM
2 | c1ccc2[nH]c(-c3nnc(C4CCCCC4)o3)cc2c1 [HGN-254, 2-cyclohexyl-5-(1H-indol-2-yl)-1,3,4-oxadiazole] | 0.5 | 48.5 | 0 | 0 | 0 | 187 to 193 | 0 | −2.00 | 47.50 | 0 | 0 | 0 | 0 | 0 | 0 | 0 | 0 | > 1000 | > 1000 | 322 | Bleaching (lettuce seeds; 0.3 mM): 0; Germination (lettuce seeds; 0.3 mM): 0; Root Dev. (lettuce seeds; 0.3 mM): 0
3 | Cc1ccc(-c2nnc(-c3cc4ccccc4[nH]3)o2)cc1 [HGN-242, 2-(1H-indol-2-yl)-5-(p-tolyl)-1,3,4-oxadiazole] | 0.8 | 48.8 | 0 | 0 | 0 | 228 to 234 | 0 | −1.75 | 47.75 |  |  |  | 0 | 0 | 0 | 0 | 0 | 109 ± 35 | > 1000 | 225 ± 17 | Bleaching (lettuce seeds; 0.5 mM): 0; Germination (lettuce seeds; 0.5 mM): 2; Root Dev. (lettuce seeds; 0.5 mM): 0; Bleaching (lettuce seeds; 1.0 mM): 0; Germination (lettuce seeds; 1.0 mM): 4; Root Dev. (lettuce seeds; 1.0 mM): 0
4 | Cc1nnc(-c2cc3ccccc3[nH]2)o1 [HGN-209, 2-(1H-indol-2-yl)-5-methyl-1,3,4-oxadiazole] | 1.5 | 49.5 | 0 | 0 | 0 | 232 to 234 | 0 | −2.25 | 47.25 |  |  |  | 0 | 0 | 0 | 0 | 0 | > 1000 | > 1000 | > 1000 | Bleaching (lettuce seeds; 0.5 mM): 0; Germination (lettuce seeds; 0.5 mM): 1; Root Dev. (lettuce seeds; 0.5 mM): 1; Bleaching (lettuce seeds; 1.0 mM): 0; Germination (lettuce seeds; 1.0 mM): 2; Root Dev. (lettuce seeds; 1.0 mM): 1
5 | FC(F)(F)c1ccc(-c2nnc(-c3nc4ccccc4s3)o2)cc1 [HGN-337, 2-(benzo[d]thiazol-2-yl)-5-(4-(trifluoromethyl)phenyl)-1,3,4-oxadiazole] | 0.8 | 48.8 | 0 | 0 | 0 | 145 to 148 | 0 | −1.75 | 47.75 | 0 | 0 | 0 | 0 | 0 | 0 | 0 | 0 | > 500 | > 500 | > 500 | Bleaching (lettuce seeds; 0.3 mM): 0; Germination (lettuce seeds; 0.3 mM): 0; Root Dev. (lettuce seeds; 0.3 mM): 0
6 | Clc1ccc(-c2nnc(-c3nc4ccccc4s3)o2)cc1 [HGN-339, 2-(benzo[d]thiazol-2-yl)-5-(4-chlorophenyl)-1,3,4-oxadiazole] | 1.3 | 49.3 | 0 | 0 | 0 | 161 to 163 | 0 | −2.00 | 47.50 | 0 | 0 | 0 | 0 | 0 | 0 | 0 | 0 | > 500 | > 500 | 158 | Bleaching (lettuce seeds; 0.3 mM): 0; Germination (lettuce seeds; 0.3 mM): 0; Root Dev. (lettuce seeds; 0.3 mM): 0
7 | c1ccc(CCc2nnc(-c3cc4ccccc4[nH]3)o2)cc1 [HGN-215, 2-(1H-indol-2-yl)-5-phenethyl-1,3,4-oxadiazole] | 0.8 | 48.8 | 0 | 0 | 0 | 161 to 164 | 0 | −2.00 | 47.50 | 0 | 0 | 0 | 0 | 0 | 0 | 0 | 0 | 430 ± 48 | > 1000 | > 1000 | Bleaching (lettuce seeds; 0.3 mM): 0; Germination (lettuce seeds; 0.3 mM): 0; Root Dev. (lettuce seeds; 0.3 mM): 0
